Data: the NIST ThermoML archive (doi:10.1016/j.jct.2019.02.011)

Test: xn = mol fraction of the nth substance listed
Conditions: Liquid, Vibrating tube method

COC(=O)OC [dimethyl carbonate] + CCCO
mass density [kg/m3]
Conditions | 100 kPa | 5000 kPa | 10000 kPa | 15000 kPa | 20000 kPa | 25000 kPa | 30000 kPa | 35000 kPa | 40000 kPa
303.15 K, x1 = 0.0273 | – | – | – | – | – | – | – | 827.45 | 830.37
303.15 K, x1 = 0.0506 | – | – | – | – | – | – | – | 834.14 | 837.11
303.15 K, x1 = 0.0755 | – | – | – | – | – | – | – | 841.27 | 844.3
303.15 K, x1 = 0.1007 | – | – | – | – | – | – | – | 848.4 | 851.44
303.15 K, x1 = 0.1495 | – | – | – | – | – | – | – | 862.14 | 865.25
303.15 K, x1 = 0.2003 | – | – | – | – | – | – | – | 876.43 | 879.56
303.15 K, x1 = 0.2529 | – | – | – | – | – | – | – | 891.09 | 894.28
303.15 K, x1 = 0.2993 | – | – | – | – | – | – | – | 903.84 | 907.1
303.15 K, x1 = 0.3497 | – | – | – | – | – | – | – | 917.64 | 920.92
303.15 K, x1 = 0.401 | – | – | – | – | – | – | – | 931.51 | 934.85
303.15 K, x1 = 0.4509 | – | – | – | – | – | – | – | 944.84 | 948.26
303.15 K, x1 = 0.5002 | – | – | – | – | – | – | – | 958 | 961.43
303.15 K, x1 = 0.5498 | – | – | – | – | – | – | – | 971.12 | 974.61
303.15 K, x1 = 0.5996 | – | – | – | – | – | – | – | 984.2 | 987.76
303.15 K, x1 = 0.6499 | – | – | – | – | – | – | – | 997.34 | 1000.93
303.15 K, x1 = 0.7006 | – | – | – | – | – | – | – | 1010.45 | 1014.1
303.15 K, x1 = 0.7471 | – | – | – | – | – | – | – | 1022.39 | 1026.05
303.15 K, x1 = 0.7989 | – | – | – | – | – | – | – | 1035.67 | 1039.35
303.15 K, x1 = 0.8491 | – | – | – | – | – | – | 1044.84 | 1048.52 | 1052.22
303.15 K, x1 = 0.8993 | – | – | – | – | – | – | 1057.6 | 1061.28 | 1065.05
303.15 K, x1 = 0.9249 | – | – | – | – | – | – | 1064.01 | 1067.75 | 1071.52
303.15 K, x1 = 0.9489 | – | – | – | – | – | – | 1070.02 | 1073.76 | 1077.54
303.15 K, x1 = 0.9743 | – | – | – | – | – | – | 1076.38 | 1080.13 | 1083.97
303.15 K, x1 = 1 | – | – | – | – | – | – | 1082.9 | 1086.6 | 1090.4
308.15 K, x1 = 0.0273 | 798.56 | 802.69 | 806.56 | 810.18 | 813.81 | 817.21 | 820.58 | 823.72 | 826.71
308.15 K, x1 = 0.0506 | 804.88 | 809.05 | 812.98 | 816.65 | 820.28 | 823.74 | 827.15 | 830.34 | 833.34
308.15 K, x1 = 0.0755 | 811.69 | 815.86 | 819.84 | 823.57 | 827.25 | 830.71 | 834.12 | 837.36 | 840.41
308.15 K, x1 = 0.1007 | 818.55 | 822.77 | 826.76 | 830.48 | 834.21 | 837.72 | 841.19 | 844.43 | 847.53
308.15 K, x1 = 0.1495 | 831.9 | 836.17 | 840.21 | 844.04 | 847.82 | 851.38 | 854.86 | 858.14 | 861.25
308.15 K, x1 = 0.2003 | 845.6 | 849.97 | 854.07 | 857.95 | 861.78 | 865.4 | 868.98 | 872.31 | 875.47
308.15 K, x1 = 0.2529 | 859.71 | 864.12 | 868.28 | 872.21 | 876.1 | 879.78 | 883.42 | 886.79 | 890
308.15 K, x1 = 0.2993 | 872.12 | 876.53 | 880.75 | 884.73 | 888.67 | 892.4 | 896.05 | 899.42 | 902.69
308.15 K, x1 = 0.3497 | 885.38 | 889.84 | 894.11 | 898.2 | 902.19 | 905.97 | 909.68 | 913.1 | 916.37
308.15 K, x1 = 0.401 | 898.75 | 903.3 | 907.64 | 911.77 | 915.81 | 919.66 | 923.42 | 926.84 | 930.17
308.15 K, x1 = 0.4509 | 911.74 | 916.34 | 920.73 | 924.87 | 928.97 | 932.87 | 936.64 | 940.1 | 943.48
308.15 K, x1 = 0.5002 | 924.45 | 929.1 | 933.55 | 937.74 | 941.84 | 945.79 | 949.62 | 953.13 | 956.52
308.15 K, x1 = 0.5498 | 937.17 | 941.82 | 946.33 | 950.57 | 954.72 | 958.68 | 962.57 | 966.12 | 969.52
308.15 K, x1 = 0.5996 | 949.8 | 954.5 | 959.02 | 963.36 | 967.52 | 971.54 | 975.48 | 979.03 | 982.49
308.15 K, x1 = 0.6499 | 962.55 | 967.29 | 971.88 | 976.22 | 980.43 | 984.5 | 988.45 | 992.05 | 995.51
308.15 K, x1 = 0.7006 | 975.36 | 980.15 | 984.79 | 989.19 | 993.45 | 997.53 | 1001.49 | 1005.08 | 1008.6
308.15 K, x1 = 0.7471 | 986.95 | 991.79 | 996.49 | 1000.94 | 1005.2 | 1009.34 | 1013.35 | 1016.99 | 1020.52
308.15 K, x1 = 0.7989 | 999.88 | 1004.72 | 1009.48 | 1013.98 | 1018.3 | 1022.49 | 1026.51 | 1030.15 | 1033.73
308.15 K, x1 = 0.8491 | 1012.38 | 1017.27 | 1022.04 | 1026.54 | 1030.91 | 1035.16 | 1039.19 | 1042.88 | 1046.46
308.15 K, x1 = 0.8993 | 1024.9 | 1029.78 | 1034.61 | 1039.16 | 1043.54 | 1047.79 | 1051.88 | 1055.57 | 1059.15
308.15 K, x1 = 0.9249 | 1031.23 | 1036.11 | 1040.95 | 1045.55 | 1049.98 | 1054.24 | 1058.33 | 1062.01 | 1065.61
308.15 K, x1 = 0.9489 | 1037.12 | 1042.05 | 1046.89 | 1051.5 | 1055.93 | 1060.19 | 1064.28 | 1068.02 | 1071.61
308.15 K, x1 = 0.9743 | 1043.46 | 1048.4 | 1053.24 | 1057.85 | 1062.28 | 1066.54 | 1070.69 | 1074.37 | 1078.02
308.15 K, x1 = 1 | 1049.91 | 1054.84 | 1059.69 | 1064.3 | 1068.73 | 1073 | 1077.1 | 1080.78 | 1084.38
